One experiment relates to Colon-26 tumors. Put plainly: Therapy of established Colon-26 tumors in BALB/c mice. Type of experiment: in vivo. Particulars: SN6j 1.8 μg/g i.v., DOX 0.5 μg/g i.p. How it is done: Antiangiogenic Therapy of Preformed Colon Tumors in Mice. Colon-26 cells (1.25×10^5 cells in 0.1 ml PBS) were inoculated subcutaneously (s.c.) into left flank of BALB/c mice. […] Doxorubicin (0.5 μg/g body weight) was injected intraperitoneally (i.p.) into mice. The administration was repeated three times at 4 days intervals.
Follow-up of Treatment Efficacy.
SN6j (1.8 μg/g body weight) and MOPC195v (1.8 μg/g body weight) were injected i.v. while DOX (0.5 μg/g body weight) was injected i.p. The injectections were repeated three times at 4 days intervals.
Details of the analysis were described by Yokoyama et al. (31), Yu et al. (32) and us (25). […] This improvement persisted until the end of the therapy experiment (Table 3).

Experiment [1] has as its system human vessels in the tumors. Put plainly: Count of human vessels in tumors after therapy. Type of experiment: in vivo. Particulars: large tumors at end of experiment of FIG. 7. An excerpt:
(§1) Large tumors of two different sizes (i.e., 350-450 mm^3 and 100-250 mm^3) were obtained from each group of mice for immunostaining and vessel counting. Sections of the tumors were stained with individual mAbs or a mixture of anti-human CD105 and CD31 mAbs and a mixture of anti-mouse CD105 and CD31 mAbs as described above. Human and mouse vessels were counted separately as described above. An average of vessel counts in the two tumors was compared between different groups.
(§2) Human and murine blood vessels were immunostained in the large human tumors from the chimera mice after the mice were sacrificed at the end of experiment shown in FIG. 7. Number of murine vessels in the tumors was 52, 47, 47 and 34 per 100× field for groups A, B, C and D, respectively (see FIG. 7 for the groups). Therefore, SN6j (group B) and CPA (group C) caused only a small decrease (approximately 10%) in the number of murine vessels in the tumors compared with the control (group A). However, combination of SN6j and CPA (group D) caused a larger (i.e., 35%) decrease in the number of murine vessels. […] CPA was not effective for inhibiting human vessels and only weakly suppressive against murine vessels.

For experiment [2], the system named is murine vessels in the tumors. Put plainly: Count of murine vessels in tumors after therapy. Type of experiment: in vivo, mouse. Particulars: large tumors at end of experiment of FIG. 7.
Source text: as §1, §2

For the compound `COc1cccc2c1C(=O)c1c(O)c3c(c(O)c1C2=O)C[C@@](O)(C(=O)CO)C[C@@H]3O[C@H]1C[C@H](N)[C@H](O)[C@H](C)O1` [DOX, Doxorubicin], the “Fractional tumor volume (FTV) relative to untreated controls” value in the experiment with Colon-26 tumors (Day 4 after tumor cell inoculation, all mice) was found to be 0.954; in the experiment with Colon-26 tumors (Day 4 after tumor cell inoculation, tumors of >4 mm^3 at onset of therapy), 0.979; in the experiment on Colon-26 tumors (Day 7 after tumor cell inoculation, all mice) it was 0.741; in the experiment on Colon-26 tumors (Day 7 after tumor cell inoculation, tumors of >4 mm^3 at onset of therapy), 0.753; with Colon-26 tumors (Day 9 after tumor cell inoculation, all mice), 0.895; with Colon-26 tumors (Day 9 after tumor cell inoculation, tumors of >4 mm^3 at onset of therapy), 0.954. Also, the “Fractional tumor volume (FTV) relative to untreated controls” value in the experiment on Colon-26 tumors (Day 11 after tumor cell inoculation, all mice) came out at 0.956; in the experiment on Colon-26 tumors (Day 11 after tumor cell inoculation, tumors of >4 mm^3 at onset of therapy), 1.018; in the experiment on Colon-26 tumors (Day 13 after tumor cell inoculation, all mice), 0.860; with Colon-26 tumors (Day 13 after tumor cell inoculation, tumors of >4 mm^3 at onset of therapy), 1.009; in the experiment with Colon-26 tumors (Day 15 after tumor cell inoculation, all mice), 0.976; in the experiment on Colon-26 tumors (Day 15 after tumor cell inoculation, tumors of >4 mm^3 at onset of therapy), 1.159. The “Fractional tumor volume (FTV) relative to untreated controls” value in the experiment with Colon-26 tumors (Day 17 after tumor cell inoculation, all mice) was 0.813; with Colon-26 tumors (Day 17 after tumor cell inoculation, tumors of >4 mm^3 at onset of therapy), 0.954; in the experiment with Colon-26 tumors (Day 19 after tumor cell inoculation, all mice), 0.873; with Colon-26 tumors (Day 19 after tumor cell inoculation, tumors of >4 mm^3 at onset of therapy) it was 1.101.
As for `O=P1(N(CCCl)CCCl)NCCCO1` (stereo not shown) [CPA, cyclophosphamide], in experiment [1], the “number of human vessels in the tumors per 100× field” value stood at 36 per 100× field. In experiment [2], the “decrease in the number of murine vessels compared with the control” value is “approximately 10%” and the “number of murine vessels in the tumors per 100× field” value came out at 47 per 100× field.

These data come from US7691374B2, “Method for increasing the efficacy of anti-tumor agents by anti-endoglin antibody” (Health Research, Inc., priority 2002, dated 2010).
